“Also recorded” adds a separate entry of the source.
Columns and labels:
[1] = test system: mouse lens ex vivo culture; test: Mouse whole lens ex vivo culture, lens capsule immunoblot; assay type: cell-based; settings: for αSMA production after BSO stimulation: ex vivo cultured mouse lens (lens capsule), 10 mM NAC or 0.5 mM GSH-EE with 500 μM BSO, 48 hr; for TGFβ2-mediated αSMA production: lens capsule from whole lens culture, 10 mM NAC or 0.5 mM GSH-EE with 1 ng/ml TGFβ2, 48 hr
Description: The isolated intact lens was rinsed three times with HBSS and then cultured in 12-well-plates with serum-free Medium 199 (ThermoFisher) with 50 unit/ml penicillin streptomycin at 37° C. in 5% CO2 incubator, as described above. The lens explant was cultured following the same procedure as described by a previous report. […] et al., Exp Eye Res 71, 591-597 (2000). In brief, the mouse lens was placed in an anterior-toposterior orientation with the anterior attached to the culture dish. The lens posterior capsule was torn/cut by the tip of extra-fine forceps and then peeled towards anterior capsule and pinned on the plastic culture dish. The lens fiber mass was removed thereafter. The explant was cultured in serum-free MEM medium supplied with 50 unit/ml penicillin streptomycin at 37° C. in 5% CO2 incubator as described above. Only healthy growing explants were used for the described study and any unhealthy looking explants, such as folded explants or those with cell detachment, were discarded. Cells were placed 24 hr before the treatment and fresh medium was replaced immediately before the treatment. The indicated concentrations of BSO, DMF, NAC, GSH-EE or TGFβ2 were added to fresh medium and incubated at various time intervals as indicated. After treatment time, the cells were harvested after three washes with ice-cold PBS and subjected to immunoblot or other assays as described below. For whole lens culture, the serum-free medium with or without BSO, NAC, GSH-EE or TGFβ2 was incubated immediately after isolation for 48 hr and the whole lens or lens capsule was collected for further analysis. For lens explant culture, 48 hr after explant culture, various stimulates were used in fresh serum-free medium for an additional 48 hr, and the explant was fixed with 10% formaldehyde for 10 min before immunofluorescence stain, as described below. The cells, whole lens, lens capsule, and lens fibers were collected and lysed in lysis buffer containing 20 mM Tris pH 7.5, 1 mM EDTA, 1 mM EGTA, 150 mM NaCl, 1% Triton X-100, 2.5 mM sodium pyrophosphate, 1 mM bα-Glycerolphosphate, 1 mM Na3VO4, 1 mg/ml Leupeptin, 1 mM PMSF on ice for 10 min. The protein concentration from the supernatant was determined by protein BCA assay (ThermoFisher). The protein extract was further processed for immunoblot analysis and probed for αSMA, collagen I, vimentin, phosphorylated Smad2, phosphorylated Smad3, phosphorylated GSK-3β and (β-catenin. All data were normalized to the level of GAPDH.

lens explant = test: Mouse lens explant culture (ex vivo PCO mimetic model), αSMA immunofluorescence; assay type: cell-based; settings: 10 mM NAC or 0.5 mM GSH-EE co-incubated with 1 ng/ml TGFβ2, 48 hr
Description: The isolated intact lens was rinsed three times with HBSS and then cultured in 12-well-plates with serum-free Medium 199 (ThermoFisher) with 50 unit/ml penicillin streptomycin at 37° C. in 5% CO2 incubator, as described above. The lens explant was cultured following the same procedure as described by a previous report. Tamiya et al., Exp Eye Res 71, 591-597 (2000). In brief, the mouse lens was placed in an anterior-toposterior orientation with the anterior attached to the culture dish. The lens posterior capsule was torn/cut by the tip of extra-fine forceps and then peeled towards anterior capsule and pinned on the plastic culture dish. The lens fiber mass was removed thereafter. The explant was cultured in serum-free MEM medium supplied with 50 unit/ml penicillin streptomycin at 37° C. in 5% CO2 incubator as described above. Only healthy growing explants were used for the described study and any unhealthy looking explants, such as folded explants or those with cell detachment, were discarded.
Cells were placed 24 hr before the treatment and fresh medium was replaced immediately before the treatment. The indicated concentrations of BSO, DMF, NAC, GSH-EE or TGFβ2 were added to fresh medium and incubated at various time intervals as indicated. After treatment time, the cells were harvested after three washes with ice-cold PBS and subjected to immunoblot or other assays as described below. For whole lens culture, the serum-free medium with or without BSO, NAC, GSH-EE or TGFβ2 was incubated immediately after isolation for 48 hr and the whole lens or lens capsule was collected for further analysis. […]
Confocal microscope—All confocal images were collected by a Leica SP8 gSTED confocal microscope equipped with two 3 Hyd SP GaAsP detectors and the AOBS system lasers include a 405 nm, Argon (458, 476, 488, 496, 514 nm), a tunable white light (470 to 670 nm), and a 592 nm STED depletion laser. For proper comparison, each channel of fluorescence was adjusted to the highest sensitivity/intensity but without over saturation from samples with the strongest signal. […]

CCOC(=O)CNC(=O)[C@H](CS)NC(=O)CC[C@H](N)C(=O)O [GSH-EE, glutathione ethyl ester]
αSMA production after BSO stimulation [1]: alleviated; also recorded: partially, but significantly, block
TGFβ2-mediated αSMA production [1]: significantly alleviate
TGFβ2-mediated αSMA production ([1]; listed as GSHEE): alleviated
TGFβ2-induced αSMA elevation in lens explant (lens explant): partially, but significantly, attenuated

CC(=O)N[C@@H](CS)C(=O)O [NAC, N-acetyl cysteine]
αSMA production after BSO stimulation [1]: alleviated; also recorded: completely abolish
TGFβ2-mediated αSMA production [1]: alleviated; also recorded: completely block
TGFβ2-induced αSMA elevation in lens explant (lens explant): attenuated; also recorded: completely alleviated
